According to publication PMC11093748, “De novo identification of CD4^+ T cell epitopes” (Nature Methods, 2024):

What was measured:
Test in all cases: Multiplexed TCR/library dropout screen, mean ES
Type in all cases: cell-based, mouse
TCR1 = conditions: two I-Ag7 libraries combined, mixture of seven TCRs, dropout replicates (n = 6); one biological experiment
From the text: (§1) Finally, we sought to address two important aspects of antigen discovery techniques. First, we assessed whether SABR-II screens can directly read out the strength of TCR–pMHC binding. To that end, we selected six known BDC2.5 ligands across a range of ES values (Extended Data Fig. 9a) and we measured the functional avidity of their recognition by BDC2.5 TCR in vitro. Bone-marrow-derived dendritic cells were pulsed with a range of concentrations of peptides corresponding to the epitopes and used to present the peptides to BDC2.5 TCR-expressing 5KC cells. Secretion of mIL-2 was measured by ELISA and used to determine the functional avidity as EC50 (concentration of the peptide needed to induce half-maximal mIL-2) (Extended Data Fig. 9b). We observed that there was a modest negative correlation between the EC50 values of the epitopes and their ES values (Extended Data Fig. 9c). […] Second, we evaluated whether we could increase the throughput of SABR-II screens by multiplexing TCRs and libraries at the cellular level. We combined the two previously described I-Ag7 libraries in equal proportions according to their size and used it as a single library. We also employed a dropout strategy, in which a mixture of seven TCRs was screened in replicate, where one TCR was left out in each replicate. After single enrichment, we determined the mean ES of all replicates that contained a given TCR and used it to identify the cognate epitope of that TCR (Extended Data Fig. 10 and Supplementary Table 6). Using this strategy, we were able to successfully recapitulate the results for four out of four TCRs previously identified in individual screens. The use of such a strategy will greatly enhance the throughput or SABR-II screens by reducing the hands-on sort time from 1 h per TCR to 20 min per TCR.
(§2) For SABR library screens, 3 × 10^6 NFAT–GFP Jurkat cells expressing the SABR library were labeled with CellTrace Violet (BioLegend) according to the manufacturer’s protocol before incubation with 3 × 10^6 Jurkat cells expressing the TCR of interest. These mixtures were incubated in a six-well plate for 16–20 h. Cells were stained with anti-CD69-APC-Cy7 where indicated (BioLegend) and the top 1–2% of GFP^+CD69^+ cells were sorted for genomic DNA extraction, indexing and sequencing (see below). Multiplexed assays were scaled on a per-TCR basis (for example 3 × 10^6 for each of three TCRs against 9 × 10^6 library cells). For single SABR assays, unless otherwise defined, 5 × 10^5 SABR expressing NFAT–GFP Jurkat cells (or 5KC cells) were labeled with CellTrace Violet (BioLegend) according to the manufacturer’s protocol before incubation with 5 × 10^5 TCR-expressing Jurkat cells (or 5KC cells) in a round-bottom 96-well plate for 16–20 h. Cells were stained with anti-CD69-APC-Cy7 when indicated and acquired on the Attune NxT flow cytometer (Thermo Fisher Scientific). All flow analysis was performed using FlowJo (BD). For Daudi cell co-culture, 1 × 10^6 Jurkat cells expressing the TCR of interest were incubated with 1 × 10^6 Daudi cells expressing a SABR of interest for 3 days. On day 3, cells were labeled with anti-RT1B-PE and anti-Fas-APC-Cy7 before being acquired on the Attune NxT flow cytometer.
(§3) Genomic DNA was extracted from sorted cells immediately after sorting, using the PureLink genomic DNA extraction kit (Life Technologies). The integrated SABR vectors were amplified with KOD polymerase (Millipore) and two rounds of amplification. In the first round, IDT-UD-SABR-C2-F and IDT-UD-SABR-C2-R primers were used to amplify the epitope. In the second round, UDI0001-R and UDI0001-F primers (representative of index 1) were used to add Illumina unique dual indexes (UDIs) to the amplicons. A different UDI was used for each sample. The reactions were pooled and purified with the NucleoSpin gel and PCR purification kit (Takara). The purified PCR product was checked before sequencing using 2% agarose gel and subjected to sequencing on a HiSeq4000 (Fulgent Genetics). […]

TCR24 = conditions: Avg ES for all the replicates that contain that TCR (TCR24)
From the text: as §1, §2, §3

TCR2 = conditions: Avg ES for all the replicates that contain that TCR (TCR2)
From the text: as §1, §2, §3

TCR37 = conditions: Avg ES for all the replicates that contain that TCR (TCR37)
From the text: as §1, §2, §3

TCR3 = conditions: two I-Ag7 libraries combined, mixture of seven TCRs, dropout replicates (n = 6)
From the text: as §1, §2, §3

TCR5 = conditions: two I-Ag7 libraries combined, mixture of seven TCRs, dropout replicates (n = 6)
From the text: as §1, §2, §3

TCR7 = conditions: two I-Ag7 libraries combined, mixture of seven TCRs, dropout replicates (n = 6)
From the text: as §1, §2, §3

Sequence	Mean Dropout Enrichment Score (TCR1)	ES for each dropout, LOO_TCR24 (TCR24)	ES for each dropout, LOO_TCR2 (TCR2)	ES for each dropout, LOO_TCR37 (TCR37)	Mean Dropout Enrichment Score (TCR3)	Mean Dropout Enrichment Score (TCR5)	Mean Dropout Enrichment Score (TCR7)
AKAAVEEGIVAGGGV	1.526e-5	8.2968e-7	1.371e-5	7.483e-6	1.247e-5	9.209e-6	-7.192e-6
AEKVRNLPAGHGLNAQ	-4.113e-5	-1.89e-5	-1.229e-5	-2.944e-5	-2.694e-5	-3.449e-5	-3.038e-5
ALVREGLRNVAAGANP	-1.224e-5	-1.224e-5	-1.224e-5	-1.224e-5	-1.224e-5	-1.224e-5	-1.224e-5
AGGVAVIKAGAATEV	1.903e-5	2.636e-5	7.935e-6	1.413e-5	3.191e-5	1.931e-5	2.296e-5
AAVEEGIVAGGGVTLL	9.635e-6	1.546e-6	1.97e-6	2.247e-6	-1.302e-6	-4.831e-6	-1.2378e-6
